The subject of one series is mammals. The settings on record: used in mammals; cited from earlier work.
The conditions of series [1]: cited from earlier work.
Series [2] concerns liver. Nature of the series: Rat liver visualized by laser excitation light delivered by fiber optics through a laparoscope. Type of series: in vivo. The conditions noted are these: male Sprague-Dawley rat.
For series [3], the system named is liver. Briefly: Liver visualization by fluorescent dye in adult pig model after RF thermal ablation (SPY imaging system). Type of series: in vivo. The conditions noted are these: intravenous bolus, liver subjected to RF ablation.

For the compound `N=C(N)c1ccc(/C=C/c2ccc(C(=N)N)cc2O)cc1` [Fluorogold], in the series with mammals, the toxicity in mammals entry is “low evidence of toxicity”.
On to `CC1(C)C(/C=C/C=C/C=C/C=C2\N(CCCCS(=O)(=O)O)c3ccc4ccccc4c3C2(C)C)=[N+](CCCCS(=O)(=O)[O-])c2ccc3ccccc3c21` [ICG, indocyanine green], for which the distribution result in series [1] (after intravenous injection, with normal vascular permeability) is “remains intravascular”. The metabolism result in series [1] (in the body) is given as “not metabolized in the body”. In series [1] (in vivo), the enterohepatic recirculation result was “does not undergo enterohepatic recirculation”, the excretion route result is recorded as “excreted exclusively by the liver” and the intestinal reabsorption entry was “not reabsorbed from the intestine”. The “fluorescence of liver under laparoscopic laser excitation” value in the series on liver [2] is recorded as “The brightly fluorescing structure is the liver”. Moreover, in the series on liver [3], the “fluorescence of liver tissue (perfusion) under laser excitation” value is “The lighter areas to the right and bottom sides of the photos indicate normal liver tissue”. Moreover, the toxicity in mammals entry in the series on mammals is given as “low evidence of toxicity”.
In the case of Fast Blue, in the series with mammals, the toxicity in mammals entry was “low evidence of toxicity”.

The values above are taken from patent US20080249400A1, “Intraoperative Imaging Of Hepatobiliary Structures” (University of Rochester Medical Center, priority 2006, published 2008).
